# From patent US20030195240A1, “Pharmaceutical compositions comprising proton pump inhibitors and gastrin/cholecystokinin receptor ligands” (priority 2000, published 2003)
# System: ECL cells
# Assay: labelling index of ECL cells (HDC+PCNA double labelling) in oxyntic mucosa after 14 days once-daily treatment
# Assay type: in vivo, male SPF Wistar rats
# Conditions: rats, 25 mg/kg p.o. once daily for 14 days; compared with control group
# Description: This was measured according to the following experimental protocol. 40 male SPF Wistar rats (200 g) were divided into 4 treatment groups and 2 strata. The treatment of the 20 rats in the second stratum started 2 weeks after the treatment of the first stratum. The design of the study was completely randomised double blind with individual blinding; all rats were placed in a separate cage. Animals had continuous access to water and food. Animals were treated once daily during 14 days: [table] After removal of the fundus, the stomach were rinsed with phosphate buffered saline prior to fixation with 4% formalin in Millonig buffer. After 4 hours immersion in fixative solutions at room temperature, tissue was rinsed in phosphate buffered saline (PBS), dehydrated and embedded in paraffin using the Leitz paraffin embedding station (Leitz TP 1050; Germany) dehydration module and paraffin embedding module (Leitz EG 1160; Germany). Cross sections (3 μm thick) of the oxyntic part of the stomach were made at 3 levels, each separated by a distance of 400 μm. The following indirect immunofluorescence labeling method was used: removal of paraffin and rehydratation of the sections followed by a blocking step primary antibodies: polyclonal guinea pig anti-histidine decarboxylase, 1/2000 (from Euro-Diagnostica) and monoclonal mouse anti PCNA 1/2500 (Clone PC10 from Sigma). […]
compound,measurement,value
"COCCCOc1ccnc(C[S+]([O-])c2nc3ccccc3[nH]2)c1C (stereo not shown) [rebeprazole, 2-[[4-(3-methoxypropoxy)-3-methylpyridin-2-yl]methylsulfinyl]-1H-benzimidazole]","labelling index of ECL cells, Mann-Whitney test P, treated group versus control group",0.04
